# Experimental data: ChEMBL document CHEMBL1955745, “Synthesis and in vitro antitumor activity of asperphenamate derivatives as autophagy inducer” (Bioorg Med Chem Lett, 2012)
# Activity calls are given as the source filed them. The rule behind the calls is not given here.
# Tests used:
# MCF7 [1] = test: Selectivity ratio of IC50 for human […] cells to IC50 for human MCF7 cells; type: functional
# MCF7 [2] = test: Cell cycle arrest in human MCF7 cells assessed as accumulation at G2/M phase at 10 uM after 72 hrs by propidium iodide staining-based flow cytometric analysis (reference value: 20.62%); type: functional
# [3] = Thermodynamic solubility of the compound in phosphate buffer at pH 7.4 at 1 mg after 10 mins by HPLC -UV analysis; type: physicochemical; conditions: read-out: Therm_solubility
# Bel-7402 = test: Antiproliferative activity against human Bel7402 cells after 3 days by MTT assay; type: functional, cell-based; conditions: Bel-7402, 72 h
# MCF7 [4] = test: Cell cycle arrest in human MCF7 cells assessed as accumulation at G2/M phase at 10 uM after 48 hrs by propidium iodide staining-based flow cytometric analysis (reference value: 20.62%); type: functional
# MCF7 [5] = test: Cell cycle arrest in human MCF7 cells assessed as accumulation at G0/G1 phase at 10 uM after 24 hrs by propidium iodide staining-based flow cytometric analysis (reference value: 60.01%); type: functional
# MCF7 [6] = test: Induction of autophagy in human MCF7 cells assessed as increase in cytoplasmic acidic vesicular organelles at 5 to 10 uM after 72 hrs by AO staining-based fluorescence microscopic analysis; type: functional, cell-based
# MCF7 [7] = test: Cell cycle arrest in human MCF7 cells assessed as accumulation at subG1 phase at 10 uM after 24 hrs by propidium iodide staining-based flow cytometric analysis (reference value: 4.11%); type: functional
# MCF7 [8] = test: Induction of autophagy in human MCF7 cells assessed as increase in cytoplasmic acidic vesicular organelles at 5 to 10 uM after 72 hrs by MDC staining-based fluorescence microscopic analysis; type: functional, cell-based
# MCF7 [9] = test: Cell cycle arrest in human MCF7 cells assessed as accumulation at subG1 phase at 10 uM after 48 hrs by propidium iodide staining-based flow cytometric analysis (reference value: 4.11%); type: functional
# MCF7 [10] = test: Cell cycle arrest in human MCF7 cells assessed as accumulation at S phase at 10 uM after 72 hrs by propidium iodide staining-based flow cytometric analysis (reference value: 14.35%); type: functional
# MCF7 [11] = test: Ratio of IC50 for cisplatin to compound IC50 for human MCF7 cells after 3 days by MTT assay; type: functional
# MCF7 [12] = test: Induction of autophagy in human MCF7 cells assessed as increase in […] level at 5 to 10 uM after 48 hrs by Western blot analysis; type: functional, cell-based
# MCF7 [13] = test: Cell cycle arrest in human MCF7 cells assessed as accumulation at S phase at 10 uM after 24 hrs by propidium iodide staining-based flow cytometric analysis (reference value: 14.35%); type: functional
# MCF7 [14] = test: Cell cycle arrest in human MCF7 cells assessed as accumulation at subG1 phase at 10 uM after 72 hrs by propidium iodide staining-based flow cytometric analysis (reference value: 4.11%); type: functional
# MCF7 [15] = test: Cell cycle arrest in human MCF7 cells assessed as accumulation at S phase at 10 uM after 48 hrs by propidium iodide staining-based flow cytometric analysis (reference value: 14.35%); type: functional
# MCF7 [16] = test: Antiproliferative activity against human MCF7 cells after 3 days by MTT assay; type: functional, cell-based; conditions: MCF7, 72 h
# MCF7 [17] = test: Cell cycle arrest in human MCF7 cells assessed as accumulation at G2/M phase at 10 uM after 24 hrs by propidium iodide staining-based flow cytometric analysis (reference value: 20.62%); type: functional
# HeLa = test: Antiproliferative activity against human HeLa cells after 3 days by MTT assay; type: functional, cell-based; conditions: 72 h
# MCF7 [18] = test: Cell cycle arrest in human MCF7 cells assessed as accumulation at G0/G1 phase at 10 uM after 48 hrs by propidium iodide staining-based flow cytometric analysis (reference value: 60.01%); type: functional
# MCF7 [19] = test: Induction of autophagy in human MCF7 cells assessed as autophagic cells at 5 uM after 72 hrs by MDC staining-based flow cytometry (reference value: 2.14%); type: functional
# MCF7 [20] = test: Selectivity ratio of IC50 for human HeLa cells to IC50 for human MCF7 cells; type: functional
# MCF7 [21] = test: Induction of autophagy in human MCF7 cells assessed as autophagic cells at 10 uM after 72 hrs by MDC staining-based flow cytometry (reference value: 2.14%); type: functional
# MCF7 [22] = test: Induction of autophagy in human MCF7 cells assessed as decrease in LC3-1 level at 5 to 10 uM after 48 hrs by Western blot analysis; type: functional, cell-based
# MCF7 [23] = test: Cell cycle arrest in human MCF7 cells assessed as accumulation at G0/G1 phase at 10 uM after 72 hrs by propidium iodide staining-based flow cytometric analysis (reference value: 60.01%); type: functional
smiles,measurement,setting,value
O=C(Cc1ccccc1OCc1ccccc1)N[C@H](Cc1ccccc1)C(=O)OC[C@@H](Cc1ccccc1)NC(=O)c1ccccc1,Ratio IC50,MCF7 [1],5
same,Activity,MCF7 [2],20.38%
same,solubility thermodynamic at 10 min,[3],223 µg/mL
same,IC50,Bel-7402,32.6 µM
same,Activity,MCF7 [4],17.07%
same,Activity,MCF7 [5],59.85%
same,Activity,MCF7 [6],Active
same,Activity,MCF7 [7],1.76%
same,Activity,MCF7 [8],Active
same,Activity,MCF7 [9],3.16%
same,Activity,MCF7 [10],16.69%
same,Ratio IC50,MCF7 [11],1.5
same,Activity,MCF7 [12],Active
same,Activity,MCF7 [13],15.98%
same,Activity,MCF7 [14],2.83%
same,Activity,MCF7 [15],17.85%
same,IC50,MCF7 [16],6.06 µM
same,Activity,MCF7 [17],21.65%
same,IC50,HeLa,27 µM
same,Activity,MCF7 [18],59.4%
same,Activity,MCF7 [19],15.62%
same,Ratio IC50,MCF7 [20],5
same,Activity,MCF7 [21],52.62%
same,Activity,MCF7 [22],Active
same,Activity,MCF7 [23],57.08%
CC(=O)N[C@H](COC(=O)[C@H](Cc1ccccc1)NC(=O)c1ccccc1)Cc1ccccc1,solubility thermodynamic at 10 min,[3],485 µg/mL
same,IC50,Bel-7402,79.1 µM
same,IC50,MCF7 [16],48.6 µM
same,IC50,HeLa,71.5 µM
CC(=O)N[C@H](COC(=O)[C@@H](Cc1ccccc1)NC(=O)c1ccccc1)Cc1ccccc1,solubility thermodynamic at 10 min,[3],79.7 µg/mL
same,IC50,Bel-7402,89 µM
same,IC50,MCF7 [16],79.5 µM
same,IC50,HeLa,> 100 µM
O=C(N[C@H](COC(=O)[C@@H](Cc1ccccc1)NC(=O)c1ccccc1OCc1ccccc1)Cc1ccccc1)c1ccccc1,solubility thermodynamic at 10 min,[3],42.6 µg/mL
same,IC50,Bel-7402,31.8 µM
same,IC50,MCF7 [16],42.2 µM
same,IC50,HeLa,24.6 µM
C[C@@H](COC(=O)[C@H](Cc1ccccc1)NC(=O)c1ccccc1)NC(=O)c1ccccc1,solubility thermodynamic at 10 min,[3],513 µg/mL
same,IC50,Bel-7402,> 100 µM
same,IC50,MCF7 [16],> 100 µM
same,IC50,HeLa,> 100 µM
O=C(Cc1ccccc1OCc1ccccc1)N[C@@H](Cc1ccccc1)C(=O)OC[C@H](Cc1ccccc1)NC(=O)c1ccccc1,solubility thermodynamic at 10 min,[3],223 µg/mL
same,IC50,Bel-7402,> 100 µM
same,IC50,MCF7 [16],> 100 µM
same,IC50,HeLa,> 100 µM
C[C@@H](NC(=O)c1ccccc1)C(=O)OC[C@H](Cc1ccccc1)NC(=O)c1ccccc1,solubility thermodynamic at 10 min,[3],192 µg/mL
same,IC50,Bel-7402,> 100 µM
same,IC50,MCF7 [16],> 100 µM
same,IC50,HeLa,> 100 µM
O=C(N[C@H](COC(=O)[C@@H](Cc1ccccc1)NC(=O)c1cccc(O)c1)Cc1ccccc1)c1ccccc1,solubility thermodynamic at 10 min,[3],2000 µg/mL
same,IC50,Bel-7402,40.2 µM
same,IC50,MCF7 [16],42.9 µM
same,IC50,HeLa,26.1 µM
C[C@@H](COC(=O)[C@@H](Cc1ccccc1)NC(=O)c1ccccc1)NC(=O)c1ccccc1,solubility thermodynamic at 10 min,[3],236 µg/mL
same,IC50,Bel-7402,> 100 µM
same,IC50,MCF7 [16],> 100 µM
same,IC50,HeLa,> 100 µM
O=C(Cc1ccccc1O)N[C@H](Cc1ccccc1)C(=O)OC[C@H](Cc1ccccc1)NC(=O)c1ccccc1,solubility thermodynamic at 10 min,[3],524 µg/mL
same,IC50,Bel-7402,54 µM
same,IC50,MCF7 [16],62.9 µM
same,IC50,HeLa,53.3 µM
